Reference: US11299467B2 (Antabio SAS, priority 2017, dated 2022)
Read-outs that look alike come from different tables or passages of the source.

Legend:
Assay type in all cases: biochemical
NDM-1 = NDM-1 (Klebsiella pneumoniae, UniProt C7C422); assay: In vitro enzyme inhibition assay, purified NDM-1 (imipenem hydrolysis, UV 299 nm)
Experimental: (§1) Enzyme inhibition assays were performed using purified MBL enzymes (NDM-1; VIM-1; VIM-2; IMP-1) in 10 mM HEPES buffer pH 7.5 in 96-well microtiter plates. Imipenem (300 μM) was used as substrate and its hydrolysis was followed at UV 299 nm during 10 mn every 30 seconds using a Perkin Elmer Envision UV fluorescence plate reader.
(§2) Mean Ki values from multiple experiments are presented below.
(§3) Studies were undertaken to compare the compounds of the invention with structurally similar compounds (“Comp. x”). Experiments were conducted as described above.

VIM-1 = VIM-1 (Pseudomonas aeruginosa, UniProt A0A0F7KYQ8); assay: In vitro enzyme inhibition assay, purified VIM-1 (imipenem hydrolysis, UV 299 nm)
Experimental: as §1, §2, §3

VIM-2 = VIM-2 (Escherichia coli, UniProt Q5U7L7); assay: In vitro enzyme inhibition assay, purified VIM-2 (imipenem hydrolysis, UV 299 nm)
Experimental: as §1, §2, §3

IMP-1 = IMP-1 (Serratia marcescens, UniProt P52699); assay: In vitro enzyme inhibition assay, purified IMP-1 (imipenem hydrolysis, UV 299 nm)
Experimental: as §1, §2, §3

[1] = comparative study bands, read-out: Ki NDM-1 (comparative study)
[2] = mean Ki from multiple experiments, imipenem 300 μM, Cheng-Prusoff from IC50, read-out: Ki NDM-1
[3] = comparative study bands, read-out: Ki VIM-1 (comparative study)
[4] = mean Ki from multiple experiments, imipenem 300 μM, Cheng-Prusoff from IC50, read-out: Ki VIM-1
[5] = comparative study bands, read-out: Ki VIM-2 (comparative study)
[6] = mean Ki from multiple experiments, imipenem 300 μM, Cheng-Prusoff from IC50, read-out: Ki VIM-2
[7] = comparative study bands, read-out: Ki IMP-1 (comparative study)
[8] = mean Ki from multiple experiments, imipenem 300 μM, Cheng-Prusoff from IC50, read-out: Ki IMP-1

NDM-1, sequence (C7C422 29-270, looked up): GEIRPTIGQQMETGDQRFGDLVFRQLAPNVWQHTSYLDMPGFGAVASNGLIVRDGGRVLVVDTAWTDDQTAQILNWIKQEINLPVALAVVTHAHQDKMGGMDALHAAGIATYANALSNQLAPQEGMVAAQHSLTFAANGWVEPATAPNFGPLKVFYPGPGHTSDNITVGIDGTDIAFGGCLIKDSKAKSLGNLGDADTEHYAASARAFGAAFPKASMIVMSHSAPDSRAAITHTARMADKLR
IMP-1, sequence (P52699 19-246, looked up, species assumed): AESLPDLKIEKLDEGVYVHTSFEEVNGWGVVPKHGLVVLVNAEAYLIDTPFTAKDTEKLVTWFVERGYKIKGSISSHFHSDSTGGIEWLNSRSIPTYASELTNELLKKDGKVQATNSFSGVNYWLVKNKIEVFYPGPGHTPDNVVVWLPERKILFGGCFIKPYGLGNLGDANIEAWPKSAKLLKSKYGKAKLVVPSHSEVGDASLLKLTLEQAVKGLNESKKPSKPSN

Ki (NDM-1; [1]) [nM] | Ki (NDM-1; [2]) [nM] | Ki (VIM-1; [3]) [nM] | Ki (VIM-1; [4]) [nM] | Ki (VIM-2; [5]) [nM] | Ki (VIM-2; [6]) [nM] | Ki (IMP-1; [7]) [nM] | Ki (IMP-1; [8]) [nM] | Compound
< 30 | < 50 | 150 to 300 | 200 to 500 | 20 to 50 | 20 to 50 | 600 to 5000 | 1000 to 10000 | N=C(N)NNC(=O)Nc1ccc(S(=O)(=O)Nc2scnc2C(=O)O)cc1F [Example 29, 5-[[3-fluoro-4-(guanidinocarbamoylamino)phenyl]sulfonylamino]thiazole-4-carboxylic acid]
– | < 50 | – | < 200 | – | 20 to 50 | – | 1000 to 10000 | N=C(N)NCC(=O)Nc1ncc(S(=O)(=O)Nc2scnc2C(=O)O)s1 [Example 23, 5-[[2-[(2-guanidinoacetyl)amino]thiazol-5-yl]sulfonylamino]thiazole-4-carboxylic acid]
– | 200 to 2000 | – | 500 to 1000 | – | 50 to 150 | – | 1000 to 10000 | N=C(N)NCC(=O)NCc1ccc(S(=O)(=O)Nc2scnc2C(=O)O)cc1F [Example 45, 5-[[3-fluoro-4-[[(2-guanidinoacetyl)amino]methyl]phenyl]sulfonylamino]thiazole-4-carboxylic acid]
30 to 100 | – | 500 to 1000 | – | 20 to 50 | – | 150 to 600 | – | N#Cc1cc(S(=O)(=O)Nc2scnc2C(=O)O)ccc1NC(=O)CN [Comp. D, reference compound]
30 to 100 | 50 to 200 | 150 to 300 | < 200 | 20 to 50 | 20 to 50 | 150 to 600 | < 500 | N#Cc1cc(S(=O)(=O)Nc2scnc2C(=O)O)ccc1NC(=O)CNC(=N)N [Example 5, 5-[[3-cyano-4-[(2-guanidinoacetyl)amino]phenyl]sulfonylamino]thiazole-4-carboxylic acid]
– | 200 to 2000 | – | 500 to 1000 | – | – | – | 1000 to 10000 | N=C(N)NOCC(=O)Nc1ccc(S(=O)(=O)Nc2scnc2C(=O)O)cc1F [Example 42, 5-[[3-fluoro-4-[(2-guanidinooxyacetyl)amino]phenyl]sulfonylamino]thiazole-4-carboxylic acid]
– | 200 to 2000 | – | < 200 | – | – | – | 1000 to 10000 | CC(C(=N)N)C(=O)Nc1ccc(S(=O)(=O)Nc2scnc2C(=O)O)cc1F (stereo not drawn) [Example 37, 5-[[4-[(3-amino-3-imino-2-methyl-propanoyl)amino]-3-fluoro-phenyl]sulfonylamino]thiazole-4-carboxylic acid]
– | 50 to 200 | – | 500 to 1000 | – | – | – | 1000 to 10000 | N=C(N)NNC(=O)Cc1ccc(S(=O)(=O)Nc2scnc2C(=O)O)cc1F [Example 24, 5-[[4-[2-(2-carbamimidoylhydrazino)-2-oxo-ethyl]-3-fluoro-phenyl]sulfonylamino]thiazole-4-carboxylic acid]
– | 200 to 2000 | – | 200 to 500 | – | – | – | 1000 to 10000 | C[C@@H](NC(=N)N)C(=O)Nc1ccc(S(=O)(=O)Nc2scnc2C(=O)O)cc1 [Example 11, 5-[[4-[[(2R)-2-guanidinopropanoyl]amino]phenyl]sulfonylamino]thiazole-4-carboxylic acid]
– | 50 to 200 | – | 200 to 500 | – | – | – | 1000 to 10000 | CN(CC(=O)Nc1ccc(S(=O)(=O)Nc2scnc2C(=O)O)cc1F)C(=N)N [Example 8, 5-[[4-[[2-[carbamimidoyl(methyl)amino]acetyl]amino]-3-fluoro-phenyl]sulfonylamino]thiazole-4-carboxylic acid]
– | 50 to 200 | – | 500 to 1000 | – | – | – | 1000 to 10000 | O=C(CNC1=NCCN1)Nc1c(F)cc(S(=O)(=O)Nc2scnc2C(=O)O)cc1F [Example 15, 5-[[4-[[2-(4,5-dihydro-1H-imidazol-2-ylamino)acetyl]amino]-3,5-difluoro-phenyl]sulfonylamino]thiazole-4-carboxylic acid]
– | < 50 | – | 200 to 500 | – | – | – | 500 to 1000 | O=C(CC1=NCCN1)Nc1ccc(S(=O)(=O)Nc2scnc2C(=O)O)cc1F [Example 21, 5-[[4-[[2-(4,5-dihydro-1H-imidazol-2-yl)acetyl]amino]-3-fluoro-phenyl]sulfonylamino]thiazole-4-carboxylic acid]
– | 200 to 2000 | – | 200 to 500 | – | – | – | 1000 to 10000 | N=C(NCC(=O)Nc1ccc(S(=O)(=O)Nc2scnc2C(=O)O)cc1F)N1CCOCC1 [Example 33, 5-[[3-fluoro-4-[[2-(morpholine-4-carboximidoylamino)acetyl]amino]phenyl]sulfonylamino]thiazole-4-carboxylic acid]
– | 200 to 2000 | – | 200 to 500 | – | – | – | 1000 to 10000 | CNC(=N)NCC(=O)Nc1ccc(S(=O)(=O)Nc2scnc2C(=O)O)cc1F [Example 40, 5-[[3-fluoro-4-[[2-[(N-methylcarbamimidoyl)amino]acetyl]amino]phenyl]sulfonylamino]thiazole-4-carboxylic acid]
100 to 300 | – | 500 to 1000 | – | – | – | 600 to 5000 | – | NNC(=O)Nc1ccc(S(=O)(=O)Nc2scnc2C(=O)O)cc1F [Comp. I, reference compound]
– | – | 150 to 300 | – | – | – | – | – | N#Cc1cc(S(=O)(=O)Nc2scnc2C(=O)O)ccc1NC(=O)CN [Comp. F, reference compound]
– | 200 to 2000 | – | 200 to 500 | – | – | – | 1000 to 10000 | N=C(N)NCC(=O)Nc1ccc(S(=O)(=O)Nc2scnc2C(=O)O)cc1C(N)=O [Example 6, 5-[[3-carbamoyl-4-[(2-guanidinoacetyl)amino]phenyl]sulfonylamino]thiazole-4-carboxylic acid]
– | 200 to 2000 | – | 200 to 500 | – | – | – | 1000 to 10000 | N=C1NCCN1CC(=O)Nc1ccc(S(=O)(=O)Nc2scnc2C(=O)O)cc1F [Example 38, 5-[[3-fluoro-4-[[2-(2-iminoimidazolidin-1-yl)acetyl]amino]phenyl]sulfonylamino]thiazole-4-carboxylic acid]
– | 50 to 200 | – | 200 to 500 | – | – | – | < 500 | N=C(N)N/N=C/C(=O)Nc1ccc(S(=O)(=O)Nc2scnc2C(=O)O)cc1F [Example 43, 5-[[4-[[(2E)-2-(carbamimidoylhydrazono)acetyl]amino]-3-fluoro-phenyl]sulfonylamino]thiazole-4-carboxylic acid]
100 to 300 | 50 to 200 | 150 to 300 | 200 to 500 | – | – | – | – | N=C(N)NCC(=O)Nc1ccc(S(=O)(=O)Nc2scnc2C(=O)O)cc1 [Example 20, 5-[[4-[(2-guanidinoacetyl)amino]phenyl]sulfonylamino]thiazole-4-carboxylic acid]
– | 50 to 200 | – | 200 to 500 | – | – | – | 500 to 1000 | CN(C)C(=N)CC(=O)Nc1ccc(S(=O)(=O)Nc2scnc2C(=O)O)cc1F [Example 12, 5-[[4-[[3-(dimethylamino)-3-imino-propanyl]amino]-3-fluoro-phenyl]sulfonylamino]thiazole-4-carboxylic acid]
– | 200 to 2000 | – | 200 to 500 | – | – | – | 1000 to 10000 | N=C(N)NCC(=O)Nc1ccc(S(=O)(=O)Nc2scnc2C(=O)O)nn1 [Example 14, 5-[[6-[(2-guanidinoacetyl)amino]pyridazin-3-yl]sulfonylamino]thiazole-4-carboxylic acid]
– | 50 to 200 | – | 200 to 500 | – | – | – | 500 to 1000 | N=C(N)CNC(=O)Cc1ccc(S(=O)(=O)Nc2scnc2C(=O)O)cc1F [Example 25, 5-[[4-[2-[(2-amino-2-imino-ethyl)amino]-2-oxo-ethyl]-3-fluoro-phenyl]sulfonylamino] thiazole-4-carboxylic acid]
